In US10561638B2, “Methods for treating dependence” (Biotie Therapies, Inc., priority 2007, dated 2020):
Entries after “also recorded” stand apart in the source; their conditions may differ.

Experiments:
[1] = system: MPTP-lesioned squirrel monkey; assay: MPTP-lesioned squirrel monkey Parkinsonian model; format: in vivo, squirrel monkeys
Method: Twenty four squirrel monkeys, fourteen females and ten males were used in a Parkinsonian model. The twenty-four animals were randomly assigned to one of four treatment groups, with 6 animals per group. The groups consisted of the following: Group A (6 animals) received placebo (water) treatment; Group B (5 animals) received drug nepicastat at 1 mg/kg/day (0.5 mg/kg twice daily); Group C (6 animals) received 4 mg/kg/day (2 mg/kg twice daily); and Group D (6 animals) received 10 mg/kg/day (5 mg/kg twice daily). In Group B, one animal died acutely following MPTP-lesioning, and was not replaced.
Prior to lesioning, animals were subjected to quantitative assessment of spontaneous motor activity using an infrared activity monitor (IRAM) cage. All recording sessions were 60 minutes in length and were carried out for 10 sessions over a period of 2 weeks. The behavior of animals was also assessed by 1 to 3 clinical raters using a parkinsonian clinical rating scale (CRS) once per day (12 noon to 1 pm) for 3 to 5 consecutive days. […] Both the activity monitoring (IRAM) and clinical rating assessments established the mean base-line activity of each animal.
Animals were lesioned by the administration of MPTP at a concentration of 2.0 mg/kg (free-base) via subcutaneous injection to achieve a parkinsonian state. A post-MPTP lesioning behavioral assessment was carried out 2 to 4 weeks after the last MPTP-lesioning. Locomotor activity was monitored by IRAM in 60-minute sessions for 3 to 5 days. Clinical behavior (CAS) was assessed by one to three individuals rating over a period of 3 to 5 days.
Animals were tested for response to L-Dopa and the efficacy of drug nepicastat. Testing was carried out 4 to 12 weeks after the last MPTP dose. L-Dopa was administered at a concentration of either 2.5, 5, or 7.5 mg/kg by oral gavage twice daily (at 10 am and 2 pm) for 7 consecutive days. Behavior was determined by IRAM and CRS. Clinical rating was carried out 60 to 90 minutes following the 10 am morning dose on the last 4 days of treatment. Raters (one to three individuals) were blinded to the different treatment groups. IRAM assessment were preformed for 90 minutes immediately following drug administration at 2 pm on the last 2 to 5 days of drug treatment. There was a minimum 2 day washout period between each treatment dose.
Nepicastat or water (as placebo) was administered for 12 days following a minimum 2 day washout after L-Dopa dosing. Drug was administered twice daily at 10 am and 2 pm by oral gavage. Behavior was rated by IRAM and CRS. The CRS was conducted in the morning, 60 to 90 minutes after the 10 am dose of nepicastat on the last 5 days of drug treatment. Raters (one to three individuals) were blinded to the different treatment groups. IRAM assessments were preformed for 90 minutes immediately following drug administration at 2 pm on the last 5 days of drug treatment.
Eight parkinsonian features were rated in each animal and the total score was derived from the sum of these eight features. For each animal, a single clinical rating score was obtained for each drug dose by averaging the clinical rating scores of all raters (one to three) conducted over the consecutive multiple dosing (with the same dose) days. This average CRS was used for statistical analysis. A lower score was considered a less parkinsonian behavioral state.
Statistical analysis consisted of: (1) comparisons between the average CRS of placebo to nepicastat at 1, 4, and 10 mg/kg/day using the Kruskal-Wallis (non-parametric analysis of variance). This comparison was repeated using the average CRS for each experimental drug concentration corrected by the final post-MPTP ratings for each animal. The corrected clinical scores are clinical scores of experimental drug at each concentration as a ratio of post-MPTP clinical scores. […]

[2] = in vivo
Method: The pharmacokinetics of nepicastat after a single 40 mg dose was compared in men and women.

serum T3 and T4 levels = assay: Thyroid function (serum T3, T4) in iodine-deficient rats; format: in vivo, Sprague-Dawley rats; conditions: for reduction in serum T3 / reduction in serum T4: 1 mg/kg po b.i.d.; for effect on serum T3 and T4 levels: methimazole 1 mg/kg b.i.d. (2 mg/kg/d)
Method: Since the heterocyclic portion of nepicastat is structurally similar to methimazole, a known potent suppressor of mammalian thyroid function, the effects of nepicastat on thyroid function were evaluated at doses of 2.0 and 6.2 mg/kg, po, b.i.d in iodine-deficient Sprague-Dawley rats (n=9-12) for 10 days.
Male Sprague-Dawley rats, weighing 180-200 grams, were fed an iodine deficient diet (Purina, 5891C, Lot 1478, 0.066±0.042 mg iodine/kg sample) ad libitum 14 days prior to treatment. Animals were weighed and randomly assigned to one of the following treatment groups (n=12 per group): nepicastat at 2.0 mg/kg, nepicastat at 6.2 mg/kg, Methimazole at 1 mg/kg, or vehicle at 1 ml/kg. Each group of rats was dosed orally in the evening and the following morning, approximately 12 hours apart, for 10 consecutive days.
Orbital blood samples were taken at day −3, 0, 3, 7, and 9 (day 0 was the first day of dosing). Serum samples were analyzed for T3 and T4 levels using a radioimmunoassay.
To statistically evaluate changes in T3 and T4 levels, a change from baseline was calculated from the day −3 time point. A non-parametric two-way within subject analysis of variance (ANOVA) was conducted. Also a one-way ANOVA was performed to detect if a significant difference from control occurred. Pairwise analyses between controls and each treatment group were carried out using Fisher's LSD strategy to control the experiment-wise error rate. For statistical analysis of catecholamine levels, a one-way ANOVA with factor DOSE was performed. Pairwise analyses between treated and controls at each dose were carried out using Fisher's LSD strategy to control the experiment-wise error rate.

[3] = system: short-term or working memory in rats; assay: Delayed-matching-to-position (DMTP) test; format: in vivo, Sprague Dawley rats
Method: In the present DMTP study, rats were trained to remember the position of a lever across a scheduled delay of either 0, 8, 16 or 32 s in order to earn food reward. […] Another group of rats received only vehicle treatment throughout the experiment. […] The dependent measures in the present study included percentage of correct choices, the latency to make choice responses and the number of trials which the animals were able to complete during the 70 min test sessions. Changes in the former measure may indicate changes in memory and/or attentional function whereas changes in the latter two measures may be indicative of other non-cognitive effects of the drugs. Matching to position training began next. This and all subsequent training was conducted with the partitions fitted into the operant boxes. The sessions were initially 50 minutes long. Rats were placed in the operant box and the session began when the houselight was illuminated. Following a 30 s intertrial interval (ITI), one of the two levers (the sample lever) was inserted into the chamber. The lever remained inserted into the chamber until a lever-press response occurred. […] As soon as the magazine flap was pressed the magazine light was extinguished and both levers were inserted. […] The magazine light remained on until the flap was pressed. […] A 30 s ITI was initiated before the commencement of a new trial. The lever inserted as the sample lever was semi-randomly determined such that the right and lefthand levers were presented as the sample lever 8 times in a block of 16 trials. Following 24 sessions, the animals were performing the matching to position task with a high degree of accuracy. On Session 25 a variable delay interval was interposed between the depression of the sample lever and presentation of the levers on the choice trial. After a response to the sample lever, the choice levers were inserted following the first flap press occurring after either a 0 s (immediate), 4, 8 or 16 s delay. The order of the four types of trials (0, 4, 8 or 16 s delay) was semi-randomly determined with the constraint that in a 16 trial block, each delay occurred 4 times; twice on a left trial and twice on a right trial. […] The same trial was reinstated following the end of the ITI. From Session 25 onward the time-out period following incorrect choices was omitted and the session length was increased to 70 minutes. […] Due to poor performance at the 64 s delay, however, this delay was not used in any further sessions. On Session 59, delays of 0, 8, 16 and 32 s were used. These delays were used in all subsequent sessions. Only 51 of the 56 rats completed more than 24 trials (correction plus non-correction) during Session 59. These rats were selected and semi-randomly assigned to the following 7 groups such that the groups were matched on performance (percent correct, response latency and number of trials completed): […] Thus, the drug treatments administered to the seven groups during the 11 consecutive days of the present experiment were: The data collected and analyzed in the present DMTP study include 1) the percentage of correct responses; 2) the latency between performance of a response to the sample lever and the performance of the choice response and 3) the total number of correction and non-correction trials completed. The former two dependent measures were collected for the non-correction trials only. […] Two-way analysis of variance (ANOVA) with drug treatment as the between-subjects factor and delay (0, 8, 16 or 32 s) as the within-subjects factor was used to analyze percentage of correct choices and response latency. These analyses were conducted separately for each block of data. Significant interactions were followed by a one-way ANOVA which was conducted at each delay. A significant main effect from a one-way ANOVA was followed by a two-tailed Dunnett's t-test. One-way ANOVA followed by a post hoc Dunnett's test, when appropriate, was used to analyze the mean number of trials completed. […]

[4] = Pilot observation studies in rats, acute and repeated oral administration
Method: Similarly, in a separate study, physostigmine (1, 3, 10 or 30 mg/kg p.o.) or vehicle were administered acutely to groups of 8 rats.
In pilot studies of repeated administration, nepicastat (100 mg/kg p.o.) or vehicle was administered twice daily (06:00 and 18:00 h) for 10 days (once on day 11) to groups of 8 rats. The weights of the animals were monitored throughout the study and, on day 5, the animals were observed ‘blind’ by an independent observer in order to assess any overt behavioural/physiological effects following repeated administration. In a separate study, groups of 8 rats received vehicle or physostigmine (0.3, 1, 3 or 10 mg/kg p.o.) using the same dosing schedule. The weights of the animals were monitored throughout the study.

N[C@@H](Cc1ccc(O)c(O)c1)C(=O)O [L-Dopa, reference compound]
parkinsonian clinical rating vs post-MPTP ([1]; L-Dopa 2.5 mg/kg): No groups of animals demonstrated significant improvement; also recorded: no significant effect | parkinsonian clinical rating vs post-MPTP (pre-treatment) ([1]; L-Dopa 5 and 7.5 mg/kg, except Group C at 7.5 and Group B at 5 mg/kg): significant improvement; also recorded: significant effect

CC(=O)NCc1c[nH]c(=S)n1[C@H]1CCc2c(F)cc(F)cc2C1 [N-acetyl metabolite of nepicastat]
Cmax and AUC of the N-acetyl metabolite, slow vs fast acetylators [2]: much lower in the slow acetylators

Cn1cc[nH]c1=S [methimazole]
reduction in serum T3 (serum T3 and T4 levels; day 3, 4 h post-dose): 31% | reduction in serum T4 (serum T3 and T4 levels; day 3, 4 h post-dose): 46% | reduction in serum T3 (serum T3 and T4 levels; day 7, 4 h post-dose): 42% | reduction in serum T4 (serum T3 and T4 levels; day 7, 4 h post-dose): 58% | reduction in serum T3 (serum T3 and T4 levels; day 9, 4 h post-dose): 44% | effect on serum T3 and T4 levels (serum T3 and T4 levels): significantly reduced | effect on serum T3 and T4 levels (serum T3 and T4 levels; listed as Methimazole): significantly (p<0.05) lowered | T4 levels vs vehicle (serum T3 and T4 levels; methimazole 1.0 mg/kg, day nine): marginally (p<0.10) lower

CNC(=O)Oc1ccc2c(c1)[C@]1(C)CCN(C)[C@@H]1N2C [physostigmine, Physostigmine sulphate, reference compound]
all dependent measures ([3]; Block 2): no significant effects on any of the dependent measures | choice accuracy ([3]; Block 3, physostigmine 1.0 mg/kg b.i.d.): delay-independent impairment in choice accuracy | response latency, number of trials completed ([3]; Block 5): did not significantly affect | improvement of DMTP performance ([3]; administered alone, 10 days): did not improve performance | reversal of the effects of scopolamine ([3]; day 11 scopolamine test): did not appear to reverse the effects of scopolamine | convulsions on repeated administration ([4]; physostigmine 3 mg/kg p.o.): 2 of 8 animals convulsed on day 5 | mortality on repeated administration ([4]; physostigmine 10 mg/kg p.o.): 3 of 8 animals were found dead on day 2 | acute toxicity ([4]; physostigmine 30 mg/kg p.o.): Signs of toxicity were observed | effects of repeated administration ([4]; physostigmine 0.3 or 1 mg/kg): no effects | acute doses inducing overt behavioural effects ([4]; physostigmine p.o.): ≥ 3 mg/kg
